The structures appear in SMILES notation. The source made the active and inactive calls. The rule behind the calls is not given here.

The term AUC(0-inf) denotes the area under the concentration-time curve extrapolated to infinity. Lower therefore signals less exposure. A word on the MRT inf: it is the average time that molecules of a dose stay in the body. A word on the IC50: it is the concentration that inhibits the measured activity by half. As a reminder, the DC50 is the midpoint of the concentration-degradation curve.

Series [1] deals with Protein cereblon/Epidermal growth factor receptor (Homo sapiens), P00533+Q96SW2 [L858R,T790M,C797S]. Kind of series: PROTAC activity at CRBN/EGFR L858R/T790M/C797S mutant in human H1975-TM cells assessed as induction of EGFR degradation by measuring remaining activity at 1.2 nM incubated for 24 hrs by Western blot analysis (reference value: 100%). It counts as cell-based. (A western blot detects proteins with antibodies after separation by electrophoresis.)

Series [2] can be described thus: AUC (0 to infinity) in male Sprague-Dawley rat at 5 mg/kg, iv measured after 24 hrs by LC-MS/MS analysis. It counts as ADME, organism-based. Conditions: in vivo.
In series [3] the test system is Protein cereblon/Epidermal growth factor receptor (Homo sapiens), P00533+Q96SW2 [L858R,T790M,C797S]. Kind of series: PROTAC activity at CRBN/EGFR L858R/T790M/C797S mutant in human H1975-TM cells assessed as induction of EGFR degradation by measuring remaining activity at 50 nM preincubated with MG132 for 6 hrs followed by compound addition and measured after 24 hrs by Western blot analysis (reference value: 100%). It counts as cell-based.

Series [4] addresses Cyclin-dependent kinase 12 (Homo sapiens) (UniProt Q9NYV4). Kind of series: Induction of CDK12 degradation in human H1975-TM cells at 50 nM incubated for 24 hrs. Format: cell-based.
Series [5] is described as follows: Antitumor activity against human H1975-TM cells xenografted in BALB/c nude mouse assessed as tumor growth inhibition at 100 mg/kg, po administered once daily for 31 days relative to control. Format: functional. As to conditions: 744 h, time 31 day, read-out: TGI. (In general: In xenograft studies the graft and the host belong to different species.)
The nature of series [6]: MRT (0 to infinity) in male Sprague-Dawley rat at 50 mg/kg, po measured after 24 hrs by LC-MS/MS analysis. It counts as ADME, organism-based. As to conditions: in vivo.
Another series deals with H1975-TM. The series can be described thus: Induction of cell cycle arrest in human H1975-TM cells harboring EGFR L858R/T790M/C797S mutant assessed as accumulation of cells at G0/G1 phase at 5 to 60 nM incubated for 24 hrs by RNase/PI staining based analysis. Conditions: dose 5-60 nM. Format: functional.
Series [7] relates to Protein cereblon/Epidermal growth factor receptor (Homo sapiens), P00533+Q96SW2 [L858R,T790M,C797S]. The series can be described thus: PROTAC activity at CRBN/EGFR L858R/T790M/C797S mutant in human H1975-TM cells assessed as induction of EGFR degradation by measuring remaining activity at 50 nM preincubated with lenalidomide for 6 hrs followed by compound addition and measured after 24 hrs by Western blot analysis (reference value: 100%). It counts as cell-based.

For a further series, the system named is NCI-H1975. Kind of series: Antiproliferative activity against human NCI-H1975 cells harboring EGFR L858R/T790M mutant assessed as inhibition of cell proliferation incubated for 72 hrs by CCK8 assay. Conditions: NCI-H1975, 72 h. Format: functional, cell-based.
The subject of another series is Mus musculus. Kind of series: In vivo inhibition of EGFR signaling in BALB/c nude mouse xenografted with human […] cells assessed as reduction in AKT activation at 25 to 100 mg/kg, po administered once daily for 31 days by Western blot analysis. It counts as functional, organism-based. Conditions: dose 25-100 mg/kg, time 31.0 day.
Series [8] has as its target Probable U3 small nucleolar RNA-associated protein 11 (Homo sapiens) (UniProt Q9Y3A2). The series can be described thus: Induction of UTP11 degradation in human H1975-TM cells at 50 nM incubated for 24 hrs. Format: cell-based.
Series [9] relates to Protein cereblon/Epidermal growth factor receptor (Homo sapiens), P00533+Q96SW2 [L858R,T790M,C797S]. Kind of series: PROTAC activity at CRBN/EGFR L858R/T790M/C797S mutant in human H1975-TM cells assessed as induction of EGFR degradation by measuring remaining activity at 100 nM preincubated for 24 hrs followed by compound washout and measured after 6 hrs by Western blot analysis (reference value: 100%). It counts as cell-based.

For series [10], the system named is Protein cereblon/Epidermal growth factor receptor (Homo sapiens), P00533+Q96SW2 [L858R,T790M]. Kind of series: (§1) PROTAC activity at CRBN/EGFR L858R/T790M mutant in human NCI-H1975 cells assessed as induction of EGFR degradation incubated for 24 hrs by Western blot analysis. Format: cell-based.
The target in series [11] is Protein cereblon/Epidermal growth factor receptor (Homo sapiens, UniProt P00533+Q96SW2, T790M/L858R). The series is described as §1. Format: cell-based.
For series [12], the system named is Protein cereblon/Epidermal growth factor receptor (Homo sapiens), P00533+Q96SW2 [L858R,T790M,C797S]. Kind of series: PROTAC activity at CRBN/EGFR L858R/T790M/C797S mutant in human H1975-TM cells assessed as induction of EGFR degradation by measuring maximal efficacy at 300 nM incubated for 24 hrs by Western blot analysis relative to control. It counts as cell-based.

Series [13] in a line: Toxicity in BALB/c nude mouse xenografted with human H1975-TM cells assessed as spleen lesions at 25 to 100 mg/kg, po administered once daily for 31 days by Hematoxylin and eosin staining based analysis. Format: organism-based. As to conditions: in vivo, 744 h, dose 25-100 mg/kg, time 31 day.

Chain of Cyclin-dependent kinase 12 (Homo sapiens) (Q9NYV4 whole entry, looked up): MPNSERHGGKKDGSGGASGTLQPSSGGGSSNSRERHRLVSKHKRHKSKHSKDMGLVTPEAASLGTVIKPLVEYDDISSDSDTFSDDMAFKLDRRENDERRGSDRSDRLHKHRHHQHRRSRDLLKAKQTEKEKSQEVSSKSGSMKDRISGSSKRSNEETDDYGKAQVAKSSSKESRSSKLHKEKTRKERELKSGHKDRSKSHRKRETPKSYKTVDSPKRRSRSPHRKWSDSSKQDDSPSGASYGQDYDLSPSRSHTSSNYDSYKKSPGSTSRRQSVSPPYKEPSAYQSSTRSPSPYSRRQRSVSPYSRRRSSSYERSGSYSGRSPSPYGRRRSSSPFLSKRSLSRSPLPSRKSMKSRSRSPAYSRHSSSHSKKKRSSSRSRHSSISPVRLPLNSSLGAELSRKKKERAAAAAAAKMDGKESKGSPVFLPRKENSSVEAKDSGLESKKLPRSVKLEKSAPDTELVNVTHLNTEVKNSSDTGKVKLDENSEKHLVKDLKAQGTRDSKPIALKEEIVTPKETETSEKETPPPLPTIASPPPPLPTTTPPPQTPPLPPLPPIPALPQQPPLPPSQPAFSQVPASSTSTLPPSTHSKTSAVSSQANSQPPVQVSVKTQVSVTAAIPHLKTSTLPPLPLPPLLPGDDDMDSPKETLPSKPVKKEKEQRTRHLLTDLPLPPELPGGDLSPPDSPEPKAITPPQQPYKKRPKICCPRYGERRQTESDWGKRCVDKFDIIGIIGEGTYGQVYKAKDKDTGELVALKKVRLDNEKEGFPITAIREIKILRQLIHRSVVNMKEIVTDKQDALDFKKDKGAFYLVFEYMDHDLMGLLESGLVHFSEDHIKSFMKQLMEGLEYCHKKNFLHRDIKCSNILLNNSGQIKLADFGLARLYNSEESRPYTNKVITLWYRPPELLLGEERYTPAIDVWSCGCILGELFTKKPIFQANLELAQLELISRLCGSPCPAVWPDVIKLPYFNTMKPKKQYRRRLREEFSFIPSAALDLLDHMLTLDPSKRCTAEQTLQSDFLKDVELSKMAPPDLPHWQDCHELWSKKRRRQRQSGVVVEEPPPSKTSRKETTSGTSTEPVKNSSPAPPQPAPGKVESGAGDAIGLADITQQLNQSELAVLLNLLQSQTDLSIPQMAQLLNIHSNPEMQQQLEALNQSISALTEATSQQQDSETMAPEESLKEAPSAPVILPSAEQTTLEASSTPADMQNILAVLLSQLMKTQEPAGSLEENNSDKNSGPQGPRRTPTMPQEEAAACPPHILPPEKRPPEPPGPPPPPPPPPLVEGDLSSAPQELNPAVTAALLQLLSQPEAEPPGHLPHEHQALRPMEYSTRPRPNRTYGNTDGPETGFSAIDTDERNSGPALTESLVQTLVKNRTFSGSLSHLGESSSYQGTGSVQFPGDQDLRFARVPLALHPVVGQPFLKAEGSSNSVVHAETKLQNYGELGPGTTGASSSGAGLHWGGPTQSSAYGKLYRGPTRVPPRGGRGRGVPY
Chain of Probable U3 small nucleolar RNA-associated protein 11 (Homo sapiens) (Q9Y3A2 whole entry): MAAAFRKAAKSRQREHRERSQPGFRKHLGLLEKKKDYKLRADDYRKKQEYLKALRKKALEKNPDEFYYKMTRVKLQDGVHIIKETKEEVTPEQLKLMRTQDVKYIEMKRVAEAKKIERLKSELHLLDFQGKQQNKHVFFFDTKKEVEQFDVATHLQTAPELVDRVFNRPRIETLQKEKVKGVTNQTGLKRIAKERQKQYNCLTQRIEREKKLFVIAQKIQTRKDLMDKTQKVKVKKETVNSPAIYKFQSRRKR

Turning to `CCS(=O)(=O)n1cc(-c2nc(Nc3ccc(N4CCN(CCCCCCC(=O)Nc5cccc6c5CN(C5CCC(=O)NC5=O)C6=O)CC4)cc3)ncc2C(F)(F)F)c2ccccc21` (stereo unspecified), the Activity in series [1] was 107%; in series [3], 73.6%; in series [7], 56.4%; in [9], 36.1%; in series [10] it was “Dose-Dependent Effect”; in [13], “Non-Toxic”. Besides, the AUC(0-inf) in series [2] was 1800 ng·h/mL. For the same compound, the result (in series [4]; in the series with H1975-TM; in [8]) was Active. Also, the inhibition in vivo at 100 mg/kg in series [5] was found to be 66.4%. In [6], this compound displayed a mean residence time (MRT inf) of 21.4 h. Also, in the series with NCI-H1975, the IC50 came to 46.2 nM. In the series with Mus musculus, the inhibition result is “Active”. In series [11], the DC50 turned out to be 88.5 nM. The Emax in series [12] is over 95%.

(Values after ChEMBL document CHEMBL5543167, “Design, Synthesis, and Biological Evaluation of Novel EGFR PROTACs Targeting C797S Mutation” (J Med Chem, 2024).)
